In publication PMC10301845, “Characterization of a Novel M4 PAM PET Radioligand [11C]PF06885190 in Nonhuman Primates (NHP)” (Molecules, 2023):

Key:
M4 [1] = molecular target: T1, M4 (Homo sapiens, UniProt P08173); assay: human M4 binding affinity (evaluated by Pfizer); conditions: identified and evaluated by Pfizer
T1 sequence (P08173 1-479): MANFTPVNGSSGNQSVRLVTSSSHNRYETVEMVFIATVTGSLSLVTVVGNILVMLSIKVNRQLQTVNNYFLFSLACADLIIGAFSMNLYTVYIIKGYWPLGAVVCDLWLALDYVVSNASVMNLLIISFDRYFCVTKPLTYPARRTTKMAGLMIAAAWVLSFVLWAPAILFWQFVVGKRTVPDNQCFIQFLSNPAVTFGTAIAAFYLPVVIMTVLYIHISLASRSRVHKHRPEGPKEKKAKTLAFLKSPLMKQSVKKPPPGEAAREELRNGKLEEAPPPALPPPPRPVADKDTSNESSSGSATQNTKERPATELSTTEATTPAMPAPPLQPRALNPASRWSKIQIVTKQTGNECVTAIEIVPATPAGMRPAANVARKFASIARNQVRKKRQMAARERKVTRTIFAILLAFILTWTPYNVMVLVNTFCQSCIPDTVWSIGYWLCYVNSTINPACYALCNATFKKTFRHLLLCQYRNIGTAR

M4 [2] = molecular target: T2, M4 (Rattus norvegicus, UniProt P08485); assay: rat M4 binding affinity (evaluated by Pfizer); conditions: identified and evaluated by Pfizer
T2 sequence (P08485 1-478): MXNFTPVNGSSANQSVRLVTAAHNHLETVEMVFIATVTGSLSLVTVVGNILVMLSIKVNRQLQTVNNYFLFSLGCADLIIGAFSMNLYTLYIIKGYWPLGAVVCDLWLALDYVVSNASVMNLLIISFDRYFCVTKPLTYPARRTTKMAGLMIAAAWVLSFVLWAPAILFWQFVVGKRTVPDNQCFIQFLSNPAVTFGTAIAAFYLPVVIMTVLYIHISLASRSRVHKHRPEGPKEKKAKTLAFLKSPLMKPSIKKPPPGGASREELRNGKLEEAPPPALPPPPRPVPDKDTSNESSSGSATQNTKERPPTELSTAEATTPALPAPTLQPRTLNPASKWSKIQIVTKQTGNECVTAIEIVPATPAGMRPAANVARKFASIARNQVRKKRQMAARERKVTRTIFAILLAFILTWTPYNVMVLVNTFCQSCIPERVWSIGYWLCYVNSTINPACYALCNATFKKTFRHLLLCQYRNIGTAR

Ki (M4 [1]): 0.16 nM | Ki (M4 [2]): 7.15 nM
Structure (SMILES): CNc1nc(C)c(C)c2c1CN(C(=O)C[C@H]1C[C@@H]1c1ccc(F)nc1)C2 [PF06885190, 1-(6,7-dimethyl-4-(methylamino)-1,3-dihydro-2H-pyrrolo [3,4-c]pyridin-2-yl)-2-((1R,2S)-2-(6-fluoropyridin-3-yl)cyclopropyl)ethan-1-one]
